Experiments:
NIH mice = test: hot plate analgesia assay (Eddy and Leimbach), with and without naloxone; assay type: in vivo, mouse; conditions: for ED50 Dose for Hot Plate Analgesia: mice, sc, hot plate 55° C., reaction times over 60 min
Procedure: 107, 385-393, 1953]. NIH mice were dropped onto a hot plate maintained at 55° C. and the reaction time was determined. The criterion for a reaction was kicking the hind leg, attempting to jump out, or shaking a foot and turning and licking it. Reaction time for each mouse was determined at least twice before and 5, 10, 20, 30, 45 and 60 min after administration of compound.

[1] = system: dihydromorphine binding sites; test: binding to dihydromorphine binding sites in rodent brain membranes (background statement)
[2] = Nilsen assay of analgetic activity; conditions: in vivo
mice = system: mice
Procedure: The Straub-tail reaction was assayed by a standard procedure [Aceto, M. D., et. al., Brit. J. Pharmacol. 36, 225-239, 1969].

opioid-binding sites = opioid-binding sites (Cavia porcellus, UniProt A0ACM8Q262); conditions: 1 nM [3H]dihydromorphine, guinea pig cerebral tissue
Procedure: Briefly, cerebral tissue from brains of male Hartley guinea pigs was homogenized in 10 volumes of ice-cold 50 mM Tris-HCl buffer (pH 7.4) for 20 sec. in a Polytron homogenizer at 3000 rpm. After centrifugation at 18,000 G for 10 min., the pellet was reconstructed to the same volume in Tris buffer. […] Samples were chilled to 0° and filtered through glass fiber filters, followed by two washes with 5 ml of ice cold Tris buffer. Radioactivity retained on the filter was determined with a liquid scintillation counter. Nonspecific binding of [^3 H]dihydromorphine was determined in the presence of 100 nM naloxone.

Chain of opioid-binding sites (A0ACM8Q262 1-400): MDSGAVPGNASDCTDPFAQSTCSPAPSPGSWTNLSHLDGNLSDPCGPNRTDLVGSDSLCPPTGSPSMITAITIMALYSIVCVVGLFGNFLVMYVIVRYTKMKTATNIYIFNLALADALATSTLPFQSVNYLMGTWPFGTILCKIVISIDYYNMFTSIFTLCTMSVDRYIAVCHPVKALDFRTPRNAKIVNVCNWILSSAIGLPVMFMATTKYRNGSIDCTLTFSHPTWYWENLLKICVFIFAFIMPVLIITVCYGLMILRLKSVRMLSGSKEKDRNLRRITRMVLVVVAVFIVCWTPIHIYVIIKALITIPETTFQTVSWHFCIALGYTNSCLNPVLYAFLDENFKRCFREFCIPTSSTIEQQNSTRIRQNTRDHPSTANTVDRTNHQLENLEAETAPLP

Row | SMILES | ED50 Dose for Hot Plate Analgesia (NIH mice) [mg/kg] | antagonism of the analgesia by the opioid antagonist naloxone (background statement) (NIH mice; naloxone) | Effect of Naloxone (on analgesia) (NIH mice; naloxone 5 mg/kg sc) | potency relative to morphine in a standard analgetic test (NIH mice; subcutaneously to mice) | affinity for dihydromorphine binding sites [1] | Analgetic activity in the Nilsen assay [2] | Straub-tail reaction elicited by isolated alkaloid (mice; column fractions 108-111, mice) | Straub-tail response (mice; mice, at higher doses for epibatidine (background statement)) | dose that elicited a comparable Straub-tail reaction (mice; mouse, in vivo) [mg/kg] | effect of naloxone on the Straub-tail reaction (mice; mouse, in vivo) | blockade of the Straub-tail response by naloxone (background statement) (mice; opioid-antagonist naloxone) | activity at opioid-binding sites in words (opioid-binding sites) | IC50 (opioid-binding sites; 30 min, 25°, pH 7.4) [µM] | dose required for a greater than 45° arch of tail (Straub-tail reaction) (mice; mouse, in vivo, sc) [mg/kg]
1 | Clc1ccc(C2CC3CCC2N3)cn1 (stereo not drawn) [Epibatidine] | 0.005 | not antagonized | No effect | two-hundred fold more potent than morphine | very low affinity | Analgetic activity also was apparent | elicited the Straub-tail reaction in mice | marked Straub-tail response | 0.02 | only slightly reduced the Straub-tail reaction | not blocked | nearly inactive | 8.8 | 
2 | CN1CC[C@]23c4c5ccc(O)c4O[C@H]2[C@@H](O)C=C[C@H]3[C@H]1C5 [Morphine, reference compound] | 1 |  |  |  |  |  |  |  |  |  |  |  |  | 10

— patent US5462956A, “Epibatidine and derivatives, compositions and methods of treating pain” (priority 1994, dated 1995)
